Consider four molecules from patent US6803479B2, “Reagents and method for spatio-temporal control of gene expression by illumination” (University of Maryland Biotechnology Institute, priority 2001, dated 2004).

In series [1] the test system is ecdysone receptor. Conditions: cited from earlier work.
In the next series the test system is NIH3T3-ER fibroblasts. Put plainly: Toxicity in cell culture (CyQuant DNA quantification). The class given is cell-based. Conditions: 48 hours. On the procedure:
Cellular toxicity of NSE-1 was tested in cell culture. NIH3T3-ER fibroblasts (Stratagene, La Jolla, Calif.) were seeded into 96-well plates, allowed to attach for 24 hours in DMEM supplemented with 10% v/v fetal bovine serium (FBS). The medium was then replaced with DMEM-10 FBS containing ecdysoid drugs or solvent vehicle, and the cells were allowed to grow for 48 hours, at the end of which the cells were lysed and the amount of DNA in each well quantified through the CyQuant assay (Molecular Probes, Inc. Eugene, Oreg.).
Cellular toxicity of NSE-1 was tested in cell culture. NIH3T3-ER fibroblasts (Stratagene) were seeded into 96-well plates, allowed to attach for 24 hours in DMEM supplemented with 10% v/v fetal bovine serum (FBS). The medium was then replaced with DMEM-10% FBS containing ecdysoid drugs or solvent vehicle. Ethanol and DMSO were vehicle controls for ponasterone A and NSE-1, respectively. The cells were allowed to grow for 48 hours, at the end of which the cells were permeabilized and the amount of DNA in each well quantified with the CyQuant assay (Molecular Probes). […] The data are summarized in FIG. 1 (each measurement is the mean of 6 wells).

The subject of series [2] is ecdysone receptor. Put plainly: Activation of the ecdysone-regulable gene expression system. In kind it is cell-based, D. melanogaster. The text has this:
The ecydysone-regulable gene expression system relies on a recombinant ecdysone receptor (VgEcR), which is an N-terminal truncation of the natural ecdysone receptor from D. melanogaster fused to the activation domain of VP16 from HSV; VgEcR also bears 3 point mutations in the P box of the DNA-binding domain of EcR to resemble that of the glucocorticoid receptor (GR) to allow recognition of a synthetic ecdysone-response element (E/GRE), which consists of inverted half-site recognition elements for the retinoid X receptor (RXR) and GR DNA-binding domains. The hybrid E/GRE sequence is designed to evade recognition by any endogenous nuclear receptors. With RXR, the vertebrate homologue of Drosophila ultraspiracle (Yao et al. 1992), VgEcR forms a heterodimer that binds to E/GRE and initiates transcription. The ecdysone-inducible expression system has very low basal expression (No et al. 1996), because the presence of ecdysoid hormones is obligatory for receptor heterodimerization and DNA binding (Yao et al. 1993). Finally, ecdysoid hormones have no known corresponding bioactivity in vertebrates, presumably because there are no processes homologous to molting.
That these ecdysone analogues are steroids presents the same chemical obstacle to caging as did mifepristone. Fortunately, however, members of the bisacylhydrazine family are potent activators of the ecdysone receptor, and they are accessible by facile organic synthetic routes. As shown in Preliminary Studies, we have successfully synthesized a non-steroidal ecdysoid (NSE) from this class of compounds. […] Furthermore, because non-steroidal mimics of ecdysoid molting hormone have been of great interest to the agrichemical business, the acute toxicity, mutagenicity, carcinogenicity, and teratogenicity of the bisacylhydrazine family of NSEs have been extensively tested since the compounds were serendipitously discovered as ecdysone mimetics in 1983 (see Dhadialla et al. 1998 and references therein).

Series [3] has as its system EGFP-Kir2.1 fusion protein under ecdysone promoter control (VgEcR/RXR). Put plainly: Induction of reporter genes in primary rat anterior pituitary cells after adenovirus-mediated gene transfer. In kind it is cell-based. Conditions: 24 hours, single-cell microfluorimetry. The text has this:
Anterior pituitary glands were removed from female Sprague-Dawley rats, enzymatically dissociated, and plated onto No. 1 polylysine-coated glass coverslips for culturing as previously described (Ho et al. 1995). The cells were doubly infected with one adenovirus (AdVgRXR) that allows constitutive expression of a modified ecdysone receptor (VgEcR) and the retinoid X receptor (RXR) and a second adenovirus (AdGFIRK) that places under ecdysone promoter control the expression of a fusion protein between EGFP and a potassium channel of the inward rectifier family (Kir2.1). For infection, the adenoviruses were applied at 200 pfu's per cell in infection medium for 3-5 hours. The cells were then allowed to recover for 24 hours before being treated with ecdysoids (ponasterone A, NSE-1) or solvent vehicle for 24 hours.
After induction, cells were then randomly chosen through a phase-contrast view and EGFP expression in each chosen cell was monitored by single-cell microfluorimetry. Because the EGFP-Kir2.1 fusion protein should be targeted to the plasma membrane, we expect its presence in the plasma membrane as well as in the Golgi-as the images in FIG. 5 indeed illustrate. A quantitative summary of the microfluorimetric data is shown in FIG. 6 (note break in y-axis scale; N shown at the base of each bar). […]
(In general: In a reporter assay the amount or activity of a reporter protein is the signal.)

The next series can be described thus: Aqueous solubility. In kind it is physicochemical. The settings on record: aqueous KCl/HEPES buffer, 100 mM KCl, 10 mM K · HEPES, pH 7.4.
The next series deals with mice. Put plainly: Toxicity in animals (intraperitoneal injections). The settings on record: 8 mice, 32.5 mg/ml suspension, six 200-μl aliquots at 12-hour intervals. The class given is in vivo. The protocol: NSE-1 was suspended (32.5 mg/ml) in carrier vehicle consisting of 15% w/v Pluronic F127 surfactant (BASF Corp., Wyandotte, Mich.) and 3% v/v dimethylsulfoxide in phosphate buffered saline (PBS, pH 7). […] These observations give at least preliminary data showing that NSE-1 is not acutely toxic to mammals.
NSE-1 was suspended (32.5 mg/ml) in vehicle consisting of 15% w/v Pluronic F127 surfactant (BASF Corp., Wyandotte, Mich.) and 3% v/v dimethylsulfoxide in phosphate buffered saline (PBS, pH 7).

For series [4], the system named is EGFP reporter gene under ecdysone promoter control in NIH3T3-ER cells. Put plainly: Induction of reporter gene expression in transiently-transfected cells. The class given is cell-based. Conditions: 30 μM, 48 hours, single-cell microfluorimetry, NIH3T3-ER cells with pEGSH-EGFP. The protocol: NIH3T3-ER cells were transiently transfected with a plasmid pEGSH-GFP carrying the reporter eGFP gene under ecdysone promoter control. The transfected cells were treated with 10 μM ponasterone A, or 30 μM NSE-1, or plain medium for 48 hours and then screened for induction of eGFP expression by single-cell microfluorimetry.
NIH3T3-ER cells, in which expression of a modified ecdysone receptor and the retinoid X co-receptor are driven by the CMV promoter, were transiently transfected with the pEGSH-EGFP plasmid using FuGene 6 transfection reagent. The transfected cells were treated with 30 μM NSE-1 or vehicle for 48 hours and then screened for induction of EGFP expression by single-cell microfluorimetry.

The structures appear in SMILES notation. ≈ marks a conversion by molar mass, not a printed value. Entries after “also recorded” stand apart in the source; their conditions may differ.

As to `CC(C)CC[C@@H](O)[C@](C)(O)[C@H]1CC[C@@]2(O)C3=CC(=O)[C@]4(O)C[C@@H](O)[C@@H](O)C[C@]4(C)[C@H]3[C@H](O)C[C@]12C` [muristerone A], in the series with ecdysone receptor [1], the “activation of the ecdysone receptor” value is reported as “much more robustly activated”.
As for `CC(C)CC[C@@H](O)[C@](C)(O)[C@H]1CC[C@@]2(O)C3=CC(=O)[C@@H]4C[C@@H](O)[C@@H](O)C[C@]4(C)[C@H]3CC[C@]12C` [Ponasterone A, reference compound], the “growth capacity of the cells (amount of DNA, CyQuant)” value with NIH3T3-ER fibroblasts (10 μM) is recorded as “Neither Ponasterone A at 10 μM, nor NSE-1 at 10, 30 or 100 μM significantly affected the growth capacity of the cells”. Moreover, in the series with ecdysone receptor [2], the “concentrations required for activating the ecdysone system” value is on record as “in the μM range”. The “induction of expression of the EGFP-Kir2.1 fusion protein” value in series [3] is reported as “can strongly induce expression”. The “activation of the ecdysone receptor” value in the series with ecdysone receptor [1] is “much more robustly activated”.
As to `CC(C)(O)CC[C@@H](O)[C@](C)(O)[C@H]1CC[C@@]2(O)C3=CC(=O)[C@@H]4C[C@@H](O)[C@@H](O)C[C@]4(C)[C@H]3CC[C@]12C` [20-hydroxy-ecdysone], in the series with ecdysone receptor [1], the “activation of the ecdysone receptor” value is given as “moderately activated”.
Broadly, the solubility is the dissolved amount per volume that the medium holds. Read a low solubility as little dissolved substance. With `CCc1c(OC)cccc1C(=O)NN(C(=O)c1cc(C)cc(C)c1)C(C)(C)C` [NSE-1, 1-(3,5-dimethylbenzoyl)-1-tert-butyl-2-(2-ethyl-3-methoxybenzoyl)hydrazine], the “growth capacity of the cells (amount of DNA, CyQuant)” value with NIH3T3-ER fibroblasts (10 μM) is given as “Neither Ponasterone A at 10 μM, nor NSE-1 at 10, 30 or 100 μM significantly affected the growth capacity of the cells”; in the series on NIH3T3-ER fibroblasts (30 μM), “Neither Ponasterone A at 10 μM, nor NSE-1 at 10, 30 or 100 μM significantly affected the growth capacity of the cells”; with NIH3T3-ER fibroblasts (100 μM) it was “Neither Ponasterone A at 10 μM, nor NSE-1 at 10, 30 or 100 μM significantly affected the growth capacity of the cells”. Moreover, in the series on ecdysone receptor [2], the “activity in inducing expression of reporter genes under ecdysone promoter control, relative to ponasterone A” value is recorded as “as active as ponasterone A”. Moreover, the “concentrations required for activating the ecdysone system” value in the series on ecdysone receptor [2] was “in the μM range”. Further, the “induction of expression of the EGFP-Kir2.1 fusion protein” value in series [3] is “can strongly induce expression”. The solubility in the series “Aqueous solubility” worked out at 47 µM (≈ 18 µg/mL). For the same molecule, in the series with mice, the signs of intoxication result was “did not produce any signs of intoxication”. Also, in series [4], the “induction of EGFP expression” value is on record as “efficacy of NSE-1 in inducing transgenes in cultured cell lines; also recorded: can induce EGFP reporter expression”.
